Data: paper PMC12249541, “Novel Derivatives of 3-Amino-4-hydroxy-benzenesulfonamide: Synthesis, Binding to Carbonic Anhydrases, and Activity in Cancer Cell 2D and 3D Cultures” (International Journal of Molecular Sciences, 2025)
Entries after “also recorded” stand apart in the source; their conditions may differ. Read-outs that look alike come from different tables or passages of the source.

Key:
[1] = system: human foreskin fibroblasts (HFs); test: MTT cell viability assay, fibroblasts; format: cell-based; settings: Fibroblast, 72 h, read-out: EC50, HF
[2] = system: U-87, MDA-MB-231, PPC-1 cell lines; test: MTT cell viability assay, statements over several cell lines; format: cell-based, human; settings: for viability at 100 µM / EC50: Homo sapiens; for EC50: read-out: EC50 values, range over different cell lines
CAI = CAI (Homo sapiens, UniProt P00915); test: Fluorescent thermal shift assay (FTSA), CAI; format: binding
[3] = system: prostate adenocarcinoma PPC-1; test: MTT cell viability assay, PPC-1; format: cell-based; settings: Homo sapiens, read-out: EC50, PPC-1
[4] = system: triple-negative breast cancer MDA-MB-231; test: MTT cell viability assay, MDA-MB-231; format: cell-based, human; settings: read-out: EC50, MDA-MB-231
human glioblastoma U-87 = test: MTT cell viability assay, U-87; format: cell-based; settings: 72 h, read-out: EC50, U-87
[5] = system: recombinant human carbonic anhydrases (CAs); test: FTSA, statements over several CA isoenzymes; format: binding; settings: up to 200 µM
U-87 spheroids = test: 3D culture (cancer spheroids), U-87; format: cell-based, human; settings: 10 µM
MDA-MB-231 spheroids = test: 3D culture (cancer spheroids), MDA-MB-231; format: cell-based, human; settings: 10 µM
PPC-1 spheroids = test: 3D culture (cancer spheroids), PPC-1; format: cell-based, human; settings: 10 µM
CAVA = CAVA (Homo sapiens, UniProt P35218); test: Fluorescent thermal shift assay (FTSA), CAVA; format: binding; settings: compared with compound 10
CAIX = CAIX (Homo sapiens, UniProt Q16790); test: Fluorescent thermal shift assay (FTSA), CAIX; format: binding; settings: compared with compound 10
CAII = CAII (Homo sapiens, UniProt P00918); test: Fluorescent thermal shift assay (FTSA), CAII; format: binding; settings: compared with compound 24
[6] = 100 μM, 72 h, MTT, at least one of the tested cell lines
[7] = Homo sapiens, MDA-MB-231, MTT, 72 h
[8] = MTT at the end of the experiment
[9] = cancer cells and fibroblasts 1:1, vs control

Sequence of CAI (P00915 whole entry): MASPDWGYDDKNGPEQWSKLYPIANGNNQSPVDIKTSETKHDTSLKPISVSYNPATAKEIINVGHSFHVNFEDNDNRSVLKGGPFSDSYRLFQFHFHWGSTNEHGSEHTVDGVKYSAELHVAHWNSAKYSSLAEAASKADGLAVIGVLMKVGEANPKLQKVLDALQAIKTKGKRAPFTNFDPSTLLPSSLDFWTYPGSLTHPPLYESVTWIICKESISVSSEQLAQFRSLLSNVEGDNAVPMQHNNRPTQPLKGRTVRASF
Sequence of CAVA (P35218 39-305): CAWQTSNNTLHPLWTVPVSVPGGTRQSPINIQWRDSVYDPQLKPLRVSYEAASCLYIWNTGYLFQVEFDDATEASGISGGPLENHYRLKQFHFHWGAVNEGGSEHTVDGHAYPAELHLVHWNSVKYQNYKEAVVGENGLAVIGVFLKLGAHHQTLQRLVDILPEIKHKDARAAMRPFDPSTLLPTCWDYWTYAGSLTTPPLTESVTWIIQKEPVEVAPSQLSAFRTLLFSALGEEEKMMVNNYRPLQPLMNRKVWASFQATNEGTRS

Question: For `NS(=O)(=O)c1ccc(O)c(NCC(=O)c2ccc(Cl)cc2)c1` [Compound 12, 4-Hydroxy-3-((2-(4-chlorophenyl)-2-oxoethyl)amino)benzenesulfonamide], which EC50 ([1]; MTT) is on record?
Answer: Its EC50 is 166 ± 7 µM.

Question: And the viability at 100 µM [2, 6]?
Answer: Its viability at 100 µM is less than 20%.

Question: And the “melting temperature (Tm) of CAI with increasing compound concentration” value (CAI; 0–200 µM of compound, FTSA)?
Answer: The value was 56 to 66 °C.

Question: What about the EC50 ([3]; PPC-1, MTT, 72 h) of the same compound?
Answer: Its EC50 is 137 ± 15.5 µM.

Question: What about the EC50 [4, 7] of the same compound?
Answer: Its EC50 is 148 ± 22.5 µM.

Question: And the EC50 (human glioblastoma U-87; MTT)?
Answer: Its EC50 is 137 ± 15.4 µM.

Question: With `CC(=O)Nc1cc(S(=O)(=O)NC(C)=O)ccc1O` [Compound 27, N -((3-Acetamido-4-hydroxyphenyl)sulfonyl)acetamide] as the compound, how does the “binding to CA isoenzymes (in words)” value [5] read?
Answer: Its value is “did not interact; also recorded: abolished the ability”.

Question: What does the source list for `NS(=O)(=O)c1ccc(O)c(NCC(=NN=C(CNc2cc(S(N)(=O)=O)ccc2O)c2ccccc2)c2ccccc2)c1` [Compound 18, 3,3′-((Hydrazine-1,2-diylidenebis(2-phenylethan-1-yl-2-ylidene))bis(azanediyl))bis(4-hydroxybenzenesulfonamide)]?
Answer: EC50 ([1]; MTT): 134 ± 11.1 µM; viability at 100 µM [2, 6]: < 20%; EC50 ([3]; PPC-1, MTT, 72 h): 108 ± 17.7 µM; EC50 [4, 7]: 127 ± 20.8 µM; EC50 (human glioblastoma U-87; MTT): 105 ± 6 µM

Question: Which results are given for `CCOc1ccc(S(=O)(=O)N(CC)CC)cc1-n1cc(-c2ccccc2)n(CC)c1=O` [Compound 21, 4-Ethoxy-N,N-diethyl-3-(3-ethyl-2-oxo-4-phenyl-2,3-dihydro-1H-imidazol-1-yl)benzenesulfonamide]?
Answer: viability of cells in spheroids, U-87 (U-87 spheroids; [8]): reduced the viability; spheroid growth / size, U-87 (U-87 spheroids; [9]): reduced the growth; binding to CA isoenzymes (in words) [5]: completely lost its ability to bind; also recorded: abolished the ability; also recorded: did not bind any of the tested CAs; EC50 ([1]; MTT): 259 ± 8.4 µM; viability of cells in spheroids, MDA-MB-231 (MDA-MB-231 spheroids; [8]): reduced the viability; spheroid growth / size, MDA-MB-231 (MDA-MB-231 spheroids; [9]): reduced the growth; viability at 100 µM [2, 6]: < 20%; EC50 ([2]; MTT, 72 h): 43.7 to 148 µM; selectivity for cancer cells over fibroblasts ([2]; from EC50 values, cancer cell lines vs HF): 1.5–6 times; EC50 ([3]; PPC-1, MTT, 72 h): 43.7 ± 15 µM; EC50 [4, 7]: 57.3 ± 15 µM; viability of cells in spheroids, PPC-1 (PPC-1 spheroids; [8]): reduced the viability; spheroid growth / size, PPC-1 (PPC-1 spheroids; [9]): no statistically significant effect; EC50 (human glioblastoma U-87; MTT): 148 ± 10.4 µM

Question: What does the source list for `NS(=O)(=O)c1ccc(O)c(N=Cc2ccc([N+](=O)[O-])s2)c1` [Compound 9, 4-Hydroxy-3-(((5-nitrothiophen-2-yl)methylene)amino)benzenesulfonamide]?
Answer: EC50 [1]: 13.8 ± 5.2 µM; EC50 ([2]; 72 h): 13 to 23.3 µM; viability at 100 µM [2, 6]: < 20%; EC50 ([3]; PPC-1, 72 h): 13 ± 3.5 µM; EC50 ([4]; Homo sapiens, MDA-MB-231, 72 h): 14 ± 3.2 µM; EC50 (human glioblastoma U-87): 23.3 ± 2.9 µM

Question: How did the “fold increase in affinity, CAVA” value (CAVA) turn out when `NS(=O)(=O)c1ccc(O)c(NCC(=O)c2cccc3ccccc23)c1` [Compound 14, 4-Hydroxy-3-((2-(naphthalen-1-yl)-2-oxoethyl)amino)benzenesulfonamide] was run?
Answer: Its value is 9 ×.

Question: What about the cell viability [2, 6] of the same compound?
Answer: Its cell viability is “did not show high cytotoxicity”.

Question: What about the “fold increase in affinity, CAIX” value (CAIX) of the same compound?
Answer: The value was 4.5 ×.

Question: And the “fold increase in affinity, CAI” value (CAI; compared with compound 10)?
Answer: Its value is 60 ×.

Question: How did the EC50 ([4]; MTT, 72 h) turn out when `NS(=O)(=O)c1ccc(NC(=O)Nc2ccc(F)cc2)cc1` [Compound U-104, reference compound] was run?
Answer: The EC50 was 240 ± 18 µM.

Question: `CCOc1ccc(S(=O)(=O)N(CC)CC)cc1-n1cc(-c2ccccc2)nc1SCC` [Compound 23, 4-Ethoxy-N,N-diethyl-3-(2-(ethylthio)-4-phenyl-1H-imidazol-1-yl)benzenesulfonamide] was tested. Which “binding to CA isoenzymes (in words)” value [5] did it give?
Answer: Its value is “lost its affinity; also recorded: abolished the ability”.

Question: Which “fold increase in affinity, CAII” value (CAII) does the source give for `COC(=O)CCNc1cc(S(N)(=O)=O)ccc1O` [Compound 25, Methyl 3-((2-hydroxy-5-sulfamoylphenyl)amino)propanoate] here?
Answer: The value was roughly 40 ×.
